Laboratory results from patent US11358962B2, “2-hetaryl imidazol[1,2-a]pyridine derivatives” (Hoffmann-La Roche Inc., priority 2013, dated 2022).
Structures can show the parent of a compound that is named as a salt.

Each compound was assayed on native tau aggregates (assay: TAU radioligand in vitro displacement assay ([3H]T808, autoradiography on human AD brain sections)). Conditions: compound 10 nM, radioligand [3H]T808 10 nM.
Type: binding
Text: TAU Radioligand-In-Vitro Displacement Assay
This in vitro binding assay assesses the affinity of compounds for native tau aggregates.
AD human brains are purchased from Banner Sun Health Research Institute (Sun City, Ariz., USA). Pathological diagnosis of AD is made according to standard NIA-Reagan Institute criteria based on neuropathological data. The radioligand [^3H]T808 was synthesized in-house ([^3H]-2-[4-(2-Fluoro-ethyl)-piperidin-1-yl]-benzo[4,5]imidazo[1,2-a]pyrimidine, radiochemical purity 99.0%). As a reference cold T808 is used (2-[4-(2-Fluoro-ethyl)-piperidin-1-yl]-benzo[4,5]imidazo[1,2-a]pyrimidine). For the autoradiography FujiFilm Imaging Plates (BAS-IP TR 2025) are exposed to the sections and read with a FujiFilm IP reader (BAS-5000).
Ten μm thick human AD brain sections are generated with a cryostat (Leica CM3050) at −17° C. chamber temperature and −15° C. object temperature. Sections are transferred to Histobond+ microscope slides (Marienfeld Laboratory Glasware). After drying for 3 hours at room temperature the sections are stored at −20° C. The sections are incubated with the radioligand (10 nM) and the respective cold compound (at various concentrations) in 50 mM Tris buffer, pH 7.4 at room temperature for 30 min. After washing 3× 10 min at 4° C. in 50 mM Tris buffer, pH 7.4 and 3 quick dips in H2O dist. at 4° C. the sections are dried at 4° C. for 3 h. The sections are placed in a FujiFilm Cassette (BAS 2025), exposed with an Imaging Plate for five days and afterwards scanned with a resolution of […].
The signal intensity (Dens−PSL/mm2) in the region of interest (ROI) of the autoradiogram is quantified with the software MCID analysis (version 7.0, Imaging Research Inc.). The specific binding (SB) of [^3H]T808 binding in absence or in presence of a compound is calculated by subtracting the non-specific binding signal in the white matter, thus yielding SB[3H]T808 only and SBcompound. The % displacement by the various compounds is calculated as following: % displacement=100−(SBcompound/SB[3H]T808 only)*100. Validation Data
In each experiment cold T808 is used as a positive internal control. Co-incubation of equimolar amounts of hot and cold T808 is expected to reduce specific binding by approximately 50%.

Structure (SMILES) | % displacement of [3H]T808 (10 nM) at 10 nM [%]
FCOc1cccc(-c2cn3ccc(N4CCC4)cc3n2)c1 [Example 107, 7-(Azetidin-1-yl)-2-[3-(fluoromethoxy)phenyl]imidazo[1,2-a]pyridine] | 48
COc1ccc(-c2cn3ccc(N4CCCCC4)cc3n2)cc1 [Example 12, 2-(4-Methoxy-phenyl)-7-piperidin-1-yl-imidazo[1,2-a]pyridine] | 30
COc1ccc(-c2cn3ccc(NCCCF)cc3n2)cc1 [Example 132, N-(3-fluoropropyl)-2-(4-methoxyphenyl)imidazo[1,2-a]pyridin-7-amine] | 38
Cc1ccc(-c2cn3ccc(N4CCC4)cc3n2)cc1 [Example 54, 7-Azetidin-1-yl-2-p-tolyl-imidazo[1,2-a]pyridine] | 30
CN(C)c1ccn2cc(-c3ccc(OCF)cc3)nc2c1 [Example 18, [2-(4-Fluoromethoxy-phenyl)-imidazo[1,2-a]pyridin-7-yl]-dimethyl-amine] | 46
FCOc1ccc(-c2cn3ccc(NC4CC4)cc3n2)cc1 [Example 80, Cyclopropyl-[2-(4-fluoromethoxy-phenyl)-imidazo[1,2-a]pyridin-7-yl]-amine] | 34
CN(CCF)c1ccn2cc(-c3ccc4c(c3)OCO4)nc2c1 [Example 39, (2-Benzo[1,3]dioxol-5-yl-imidazo[1,2-a]pyridin-7-yl)-(2-fluoro-ethyl)-methyl-amine] | 42
Cc1ccc(-c2cn3ccc(N4CCC(F)CC4)cc3n2)cc1 [Example 57, 7-(4-Fluoro-piperidin-1-yl)-2-p-tolyl-imidazo[1,2-a]pyridine] | 20
CN(C)c1ccn2cc(-c3ccc(COCCF)cc3)nc2c1 [Example 105, 2-[4-(2-Fluoroethoxymethyl)phenyl]-N,N-dimethyl-imidazo[1,2-a]pyridin-7-amine] | 10
COCc1ccc(-c2cn3ccc(N(C)C)cc3n2)cc1 [Example 99, 2-[4-(Methoxymethyl)phenyl]-N,N-dimethyl-imidazo[1,2-a]pyridin-7-amine acetic acid adduct] | 37
COc1ccc(-c2cn3ccc(N4CC[C@@H](F)C4)cc3n2)cc1 [7 (R), (R)-7-(3-Fluoropyrrolidin-1-yl)-2-(4-methoxyphenyl)imidazo[1,2-a]pyridine] | 11
COc1ccc(-c2cn3ccc(N4CCC(F)CC4)cc3n2)cc1 [Example 14, 7-(4-Fluoro-piperidin-1-yl)-2-(4-methoxy-phenyl)-imidazo[1,2-a]pyridine] | 26
COc1cccc(-c2cn3ccc(N4CCCC4)cc3n2)c1 [Example 9, 2-(3-Methoxy-phenyl)-7-pyrrolidin-1-yl-imidazo[1,2-a]pyridine] | 33
COc1cc(-c2cn3ccc(NCCF)cc3n2)ccc1C [Example 135, N-(2-fluoroethyl)-2-(3-methoxy-4-methylphenyl)imidazo[1,2-a]pyridin-7-amine] | 14
FCOc1ccc(-c2cn3ccc(N4CCOCC4)cc3n2)cc1 [Example 49, 2-(4-Fluoromethoxy-phenyl)-7-morpholin-4-yl-imidazo[1,2-a]pyridine] | 10

Now from value to compound:

% displacement of [3H]T808 (10 nM) at 10 nM [%] | Structure (SMILES)
20 | CNc1ccn2cc(-c3cccc(C(=O)OC)c3)nc2c1 [Example 122, Methyl 3-[7-(methylamino)imidazo[1,2-a]pyridin-2-yl]benzoate]
33 | Oc1cccc(-c2cn3ccc(NCCF)cc3n2)c1 [Example 146, 3-(7-(2-fluoroethylamino)imidazo[1,2-a]pyridin-2-yl)phenol]
50 | CNc1ccn2cc(-c3ccco3)nc2c1 [Example 101, N-(2-Furan-2-yl-imidazo[1,2-a]pyridin-7-yl)-methyl-amine]
54 | CNc1ccn2cc(-c3cccc(C)c3)nc2c1 [Example 25, N-Methyl-2-m-tolylimidazo[1,2-a]pyridin-7-amine]
37 | CNc1ccn2cc(-c3ccc4c(c3)OCCO4)nc2c1 [Example 19, [2-(2,3-Dihydro-benzo[1,4]dioxin-6-yl)-imidazo[1,2-a]pyridin-7-yl]-methyl-amine]
36 | Cc1cccc(-c2cn3ccc(NCCF)cc3n2)c1 [Example 47, (2-Fluoro-ethyl)-(2-m-tolyl-imidazo[1,2-a]pyridin-7-yl)-amine]
61 | CNc1ccn2cc(-c3ccccc3)nc2c1 [Example 4, N-Methyl-2-phenylimidazo[1,2-a]pyridin-7-amine]
40 | CNc1ccn2cc(-c3cccc(COC)c3)nc2c1 [Example 130, 2-[3-(Methoxymethyl)phenyl]-N-methyl-imidazo[1,2-a]pyridine-7-amine HCl adduct]
25 | CNc1ccn2cc(-c3ccc(C)c(C)c3)nc2c1 [Example 53, [2-(3,4-Dimethyl-phenyl)-imidazo[1,2-a]pyridin-7-yl]-methyl-amine]
23 | F[C@@H]1CCN(c2ccn3cc(-c4ccccc4)nc3c2)C1 [Example 42, 7-((R)-3-Fluoro-pyrrolidin-1-yl)-2-phenyl-imidazo[1,2-a]pyridine]
45 | CNc1ccn2cc(-c3ccc(OCF)cc3)nc2c1 [Example 45, [2-(4-Fluoromethoxy-phenyl)-imidazo[1,2-a]pyridin-7-yl]-methyl-amine]
53 | Cc1cccc(-c2cn3ccc(N(C)C)cc3n2)c1 [Example 26, N,N-Dimethyl-(2-m-tolyl-imidazo[1,2-a]pyridin-7-yl)-amine]
50 | CNc1ccn2cc(-c3cnn(C)c3)nc2c1 [Example 129, Methyl-[2-(1-methyl-1H-pyrazol-4-yl)-imidazo[1,2-a]pyridin-7-yl]-amine]
54 | CNc1ccn2cc(-c3ccc(CO)cc3)nc2c1 [Example 89, [4-[7-(Methylamino)imidazo[1,2-a]pyridin-2-yl]phenyl]methanol acetic acid adduct]
36 | CO[C@H]1CCN(c2ccn3cc(-c4ccccc4)nc3c2)C1 [Example 59, 7-((S)-3-Methoxy-pyrrolidin-1-yl)-2-phenyl-imidazo[1,2-a]pyridine]
20 | CNc1ccn2cc(-c3cccc(SC)c3)nc2c1 [Example 136, N-methyl-2-(3-(methylthio)phenyl)imidazo[1,2-a]pyridin-7-amine]
10 | CNc1ccn2cc(-c3nccs3)nc2c1 [Example 104, Methyl-(2-thiazol-2-yl-imidazo[1,2-a]pyridin-7-yl)-amine]
18 | CCN(CC)c1ccc(-c2cn3ccc(NC)cc3n2)cc1 [Example 97, N-[2-(4-Diethylamino-phenyl)-imidazo[1,2-a]pyridin-7-yl]-methyl-amine]
6 | CNc1ccn2cc(-c3sccc3Cl)nc2c1 [Example 112, N-[2-(3-Chloro-thiophen-2-yl)-imidazo[1,2-a]pyridin-7-yl]-methyl-amine]

Same assay, conditions: compound 1 uM, radioligand [3H]T808 10 nM

% displacement of [3H]T808 (10 nM) at 1 uM [%] | Structure (SMILES)
93 | CNc1ccn2cc(-c3ccccc3)nc2c1 [Example 4, N-Methyl-2-phenylimidazo[1,2-a]pyridin-7-amine]
